{"source": "patent EP0470144B1", "about": "“BETA-HYDROXAMATE D-ASPARTIC ACID FOR TREATMENT OF VIRAL INFECTIONS AND TUMOURS” (priority 1989, dated 1990)", "test_system": "virus de Friend", "assay": "Survival of mice infected with Friend virus", "assay_type": "in vivo, souris DBA/2", "from_the_text": "Dans d'autres essais, le virus a été maintenu par passages successif intrapéritonéaux chez la souris DBA/2. Cet entretien a été fait à partir de la rate de l'animal tous les 21 jours. L'activité du DAH a été évaluée en comparant les durées de survie des animaux à qui est injecté le virus, avec ou sans DAH. Le traitement a commencé trois jours après l'infection virale car on considère qu'il faut ce laps de temps pour qu'il y ait des séquences du virus dans le génome des précurseurs érythroïdes de la souris infectée. Après avoir fait varier le nombre d'injections journalières et la durée du traitement pour une dose donnée, il a été établi que 3 injections de 1g/kg/dose de DAH durant les 10 premiers jours et 2 injections de 1g/kg/dose de DAH pendant les 20 jours suivants, produisent un T/C de 239 %. Les résultats sont rapportés dans le tableau suivant : Tableau 2"}
{"smiles": "N[C@@H](CC(=O)NO)C(=O)O", "note": "[DAH, D-acide aspartique β-hydroxamate]", "values": [{"measurement": "Nombre d'animaux survivants", "setting": "1 g/kg x 3/j J 1-10 then x 2/j J 11-30", "result": "5/10"}, {"measurement": "T/Cx100", "setting": "1 g/kg x 3/j J 1-10 then x 2/j J 11-30, T/C = survival time treated/controls", "result": "239,86%"}, {"measurement": "Nombre d'animaux survivants", "setting": "1 g/kg x 3/j, J 1-10", "result": "0/10"}, {"measurement": "T/Cx100", "setting": "1 g/kg x 3/j, J 1-10", "result": 193, "unit": "%"}]}
